Laboratory results taken from patent publication US20260191968A1, “PROTAC DEGRADERS OF MLLT1 AND/OR MLLT3” (DARK BLUE THERAPEUTICS LTD, priority 2024, published 2026).

Legend:
MLLT1 = target: T1, MLLT1 (Homo sapiens, UniProt Q03111); assay: MLLT1 degradation assay in MV4-11 cells (JESS chemiluminescent detection), three concentrations, 24 h; assay type: cell-based; conditions: with respect to DMSO control
T1 construct: host or cells: MV4-11
T1 sequence (Q03111 1-559): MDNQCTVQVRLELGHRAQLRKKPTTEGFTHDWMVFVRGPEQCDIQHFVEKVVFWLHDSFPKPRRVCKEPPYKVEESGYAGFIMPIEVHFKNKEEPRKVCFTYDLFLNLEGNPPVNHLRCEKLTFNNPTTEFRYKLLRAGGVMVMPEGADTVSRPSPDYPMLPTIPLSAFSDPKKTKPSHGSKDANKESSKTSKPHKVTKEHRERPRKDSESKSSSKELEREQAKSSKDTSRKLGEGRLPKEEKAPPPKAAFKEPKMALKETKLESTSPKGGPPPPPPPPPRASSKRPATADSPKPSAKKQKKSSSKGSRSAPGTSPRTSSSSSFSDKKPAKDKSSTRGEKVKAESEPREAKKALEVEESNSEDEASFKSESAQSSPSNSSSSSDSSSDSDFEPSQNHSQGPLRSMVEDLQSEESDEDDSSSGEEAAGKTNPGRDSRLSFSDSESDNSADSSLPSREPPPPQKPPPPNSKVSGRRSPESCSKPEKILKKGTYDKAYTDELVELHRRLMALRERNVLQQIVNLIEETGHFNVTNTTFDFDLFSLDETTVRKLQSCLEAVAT
Outline: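 MV4-11 cells treated 24 h at 37° C, 5% CO2 with 1000, 100 and 10 nM compound (0.1% DMSO final). MLLT1 quantified by automated capillary chemiluminescent immunodetection; band peak area expressed as % degradation relative to DMSO control.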

MV4-11 cells = assay: MV4-11 cellular proliferative assay, Assay Format B (CTG 2.0, 168 h); assay type: cell-based; conditions: Homo sapiens, 168 h (7 days), CTG 2.0, read-out: IC50 (MV4-11 cellular proliferative assay, Assay format B)
Outline: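 MV4-11 cells seeded overnight in IMDM + 10% FBS, then exposed to 10-point, 3-fold dilutions from 1 uM or 100 nM top concentration (0.3% DMSO final) for 168 h at 37 °C. CTG 2.0 luminescence read; % viability vs DMSO control fitted by four-parameter logistic regression.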

SMILES	MLLT1% Degradation @ 0.01 μM (MLLT1)	MLLT1% Degradation @ 0.1 μM (MLLT1)	MLLT1% Degradation @ 1 μM (MLLT1)	IC50 (MV4-11 cells)
CN1CCC[C@@H]1c1cc2cnc(NC(=O)c3ccc(OCC#Cc4cccc5c4n(C)c(=O)n5C4CCC(=O)NC4=O)cc3)cc2[nH]1 (stereo partly drawn) [Example 66, 4-((3-(1-(2,6-dioxopiperidin-3-yl)-3-methyl-2-oxo-2,3-dihydro-1H-benzo[d]imidazol-4-yl)prop-2-yn-1-yl)oxy)-N-(2-((R)-1-methylpyrrolidin-2-yl)-1H-pyrrolo[3,2-c]pyridin-6-yl)benzamide]	A (Category A: A ≥ 75% degradation)	A (Category A: A ≥ 75% degradation)	A (Category A: A ≥ 75% degradation)	≤ 0.1 µM
CN1CCC[C@@H]1c1cc2cnc(NC(=O)c3ccc(CCCCC#Cc4cccc(C(=O)N[C@H]5CCC(=O)NC5=O)n4)cc3)cc2[nH]1 [Example 7, N—((S)-2,6-dioxopiperidin-3-yl)-6-(6-(4-((2-((R)-1-methylpyrrolidin-2-yl)-1H-pyrrolo[3,2-c]pyridin-6-yl)carbamoyl)phenyl)hex-1-yn-1-yl)picolinamide]	A (Category A: A ≥ 75% degradation)	A (Category A: A ≥ 75% degradation)	A (Category A: A ≥ 75% degradation)	≤ 0.1 µM
CN1CCC[C@@H]1c1cc2cnc(NC(=O)c3ccc(N4CCC(CC#Cc5cccc6c5CN(C5CCC(=O)NC5=O)C6=O)CC4)nn3)cc2[nH]1 (stereo partly drawn) [Example 153, 6-(4-(3-(2-(2,6-dioxopiperidin-3-yl)-1-oxoisoindolin-4-yl)prop-2-yn-1-yl)piperidin-1-yl)-N-(2-((R)-1-methylpyrrolidin-2-yl)-1H-pyrrolo[3,2-c]pyridin-6-yl)pyridazine-3-carboxamide]	A (Category A: A ≥ 75% degradation)	A (Category A: A ≥ 75% degradation)	A (Category A: A ≥ 75% degradation)	≤ 0.1 µM
CN1CCC[C@@H]1c1cc2cnc(NC(=O)c3ccc(C4CCN(CC5CCN(c6cccc7c6CN(C6CCC(=O)NC6=O)C7=O)CC5)CC4)nc3)cc2[nH]1 (stereo partly drawn) [Example 119, 6-(1-((1-(2-(2,6-dioxopiperidin-3-yl)-1-oxoisoindolin-4-yl)piperidin-4-yl)methyl)piperidin-4-yl)-N-(2-((R)-1-methylpyrrolidin-2-yl)-1H-pyrrolo[3,2-c]pyridin-6-yl)nicotinamide]	B (Category B: 50% ≤ B < 75% degradation)	A (Category A: A ≥ 75% degradation)	A (Category A: A ≥ 75% degradation)	≤ 0.1 µM
CN1CCC[C@@H]1c1cc2cnc(NC(=O)c3ccc(CCCN4CCN(c5cccc6c5CN(C5CCC(=O)NC5=O)C6=O)CC4)cc3)cc2[nH]1 (stereo partly drawn) [Example 131, 4-(3-(4-(2-(2,6-dioxopiperidin-3-yl)-1-oxoisoindolin-4-yl)piperazin-1-yl)propyl)-N-(2-((R)-1-methylpyrrolidin-2-yl)-1H-pyrrolo[3,2-c]pyridin-6-yl)benzamide]	B (Category B: 50% ≤ B < 75% degradation)	A (Category A: A ≥ 75% degradation)	A (Category A: A ≥ 75% degradation)	≤ 0.1 µM
CN1CCC[C@@H]1c1cc2cnc(NC(=O)c3ccc(N4CCC(OC5CCN(c6cccc7c6C(=O)N(C6CCC(=O)NC6=O)C7=O)CC5)CC4)nc3)cc2[nH]1 (stereo partly drawn) [Example 148, 6-(4-((1-(2-(2,6-dioxopiperidin-3-yl)-1,3-dioxoisoindolin-4-yl)piperidin-4-yl)oxy)piperidin-1-yl)-N-(2-((R)-1-methylpyrrolidin-2-yl)-1H-pyrrolo[3,2-c]pyridin-6-yl)nicotinamide]	A (Category A: A ≥ 75% degradation)	A (Category A: A ≥ 75% degradation)	A (Category A: A ≥ 75% degradation)	≤ 0.1 µM
